Assay results taken from paper PMC7347559, “Inhibition of the ATP synthase sensitizes Staphylococcus aureus towards human antimicrobial peptides” (Scientific Reports, 2020).
Values after ≈ are worked out from the molar mass of the structure shown. Where a SMILES comes first, the peptide text is derived from it. Bridges are numbered along the chain shown (N, C = ends). Where no end group is shown, it is not given here. [ ]: non-standard residue; d: D form. The star is where a group is joined. X1 = CC[C@H](C)CCCCC(=O)*; Dab = NCC[C@H](N)C(=O)O

Tests used:
[1] = test system: S. aureus JE2 atpA mutant (atpA::ΦNΣ); test: Bacterial cell survival assay (CFU after 2 h exposure in NaPi); format: cell-based, Staphylococcus aureus; settings: for difference in susceptibility / survival between atpA mutant and WT (in words): 2 h exposure at the concentrations highlighted in Fig. 1a
Procedure: (§1) From overnight cultures of S. aureus JE2 and mutants, 10 μl was diluted into 990 μl fresh TSB medium in a falcon tube and grown for 2 h for the cells to reach early exponential phase. After 2 h the cultures were re-suspended in 10 mM sodium phosphate buffer (pH 7.4), termed NaPi (Medicago, Sweden). Cells were subsequently diluted in NaPi to approximately 5 × 10^5 CFU/ml, and combined with antimicrobial peptides and resveratrol when indicated, to a final volume of 100 µl and incubated in 96-well plates with shaking for 2 h at 37 °C. Bacteria were plated for CFU on TSA plates. Following overnight incubation at 37 °C for 24 h, viable cells were enumerated and relative cell survival was calculated as CFUwith peptide/CFUwithout peptide at 2 h post-exposure.

[2] = test system: S. aureus JE2; test: Two-fold broth microdilution MIC in TSB; format: cell-based; settings: Staphylococcus aureus, JE2, 24 h
Procedure: The minimum inhibitory concentration for resveratrol was determined using a two-fold broth microdilution assay in TSB (100 µl) with an initial inoculum of approximately 5 × 10^5 cells/ml.

[3] = test system: S. aureus JE2 (WT); test: Bacterial cell survival assay (CFU after 2 h exposure in NaPi); format: cell-based, Staphylococcus aureus
Procedure: as §1

[4] = test system: S. aureus JE2 atpG mutant (atpG::ΦNΣ); test: as above; format: cell-based, Staphylococcus aureus; settings: hBD4 5 µM
Procedure: as §1

[5] = test system: S. aureus JE2 menD mutant (menD::ΦNΣ); test: as above; format: cell-based, Staphylococcus aureus; settings: hBD4 5 µM
Procedure: as §1

[6] = test system: S. aureus JE2 atpB mutant (atpB::ΦNΣ); test: as above; format: cell-based, Staphylococcus aureus; settings: hBD4 5 µM
Procedure: as §1

[7] = test system: opsonized S. aureus JE2 atpA mutant in human neutrophils; settings: 1 h incubation, MOI 1, opsonized with 10% normal human serum; mean of at least seven replicates; without DPI 39.2%
Procedure: (§2) Blood was collected from healthy adult volunteers and written informed consent was given. Isolation of neutrophils was performed following the procedure described in[36]. All methods were carried out in accordance with relevant guidelines and regulations. The institutional review board (IRB) of the University of Tübingen approved the study and all adult subjects provided informed consent. This study was done in accordance with the ethics committee of the medical faculty of the University of Tübingen that approved the study, Approval number 015/2014 BO2. Briefly, heparinized blood was diluted 1:1 (v/v) with PBS containing 0.5% BSA and 2 mM EDTA and layered onto a gradient of Biocoll (density, 1.077 g/ml; Biochrom) and Histopaque (density, 1.119 g/ml; Sigma). After centrifugation for 20 min at 380×g, neutrophils were collected from the Histopaque phase. Cells were subjected to a brief hypotonic shock with ultrapure-water containing 155 mM ammonium chloride, 1 mM potassium hydrogen carbonate and 0.1 mM EDTA at pH 7.4, washed, and suspended at 2.5 × 10^6 cells/ml in RPMI containing […] HSA, 2 mM glutamine, 2 mM sodium pyruvate and 10 mM HEPES.
(§3) Starter cultures of S. aureus JE2 and its respective atpA mutant were grown in TSB medium overnight.

[8] = test system: opsonized S. aureus JE2 WT in human neutrophils; settings: 1 h incubation, MOI 1, opsonized with 10% normal human serum; mean of at least seven replicates; without DPI 49.9%
Procedure: as §2, §3

[9] = test system: menD::ΦNΣ; test: Etest MIC on TSA; format: cell-based, Staphylococcus aureus; settings: 37 °C, 24 h
Procedure: (§4) The MIC for polymyxin B was determined using Etest (bioMérieux, France) in the absence and in the presence of sub-inhibitory concentrations (0.0625x–0.25 × MIC) of resveratrol or menadione (1 µg/ml, Sigma). From overnight cultures, strains were diluted to approximately 10^8 CFU/ml and then distributed on TSA plates using a sterile cotton swab.

[10] = test system: S. aureus JE2; test: Etest MIC on TSA; format: cell-based, Staphylococcus aureus; settings: 37 °C, 24 h
Procedure: as §4

[11] = test system: atpA^+ (allelic exchange of transposon insertion with intact atpA gene); test: Etest MIC on TSA; format: cell-based, Staphylococcus aureus; settings: 37 °C, 24 h
Procedure: as §4

[12] = test system: atpA::ΦNΣ; test: Etest MIC on TSA; format: cell-based, Staphylococcus aureus; settings: 37 °C, 24 h
Procedure: as §4

## histatin-5
[1]
  difference in susceptibility / survival between atpA mutant and WT (in words): minor increase in bactericidal activity

## Oc1ccc(/C=C/c2cc(O)cc(O)c2)cc1 [resveratrol]
[2]
  MIC: 256 µg/mL (≈ 1120 µM)
[3]; resveratrol 32 µg/ml in combination with hBD4 5 µM
  increase in killing of WT S. aureus compared with hBD4 alone: 20 fold
[3]; resveratrol alone at sub-inhibitory concentration 0.125 × MIC (32 µg/ml)
  impact on S. aureus viability: no impact

## hBD3: human β-defensin 3 (Innovagen) (GIINTLQKYYCRVRGGRCAVLSCLPKEEQIGKCSTRGRKCCRRKK; ends and bridges not checked; cysteine pairing not given here; UniProt P81534 23-67, looked up)
[1]
  difference in susceptibility / survival between atpA mutant and WT (in words): no differences

## hBD4: human β-defensin 4 (Innovagen) (EFELDRICGYGTARCRKKCRSQEYRIGRCPNTYACCLRKWDESLLNRTKP; ends and bridges not checked; cysteine pairing not given here; UniProt Q8WTQ1 23-72, looked up)
[4]
  susceptibility of atpG mutant compared with WT: increased susceptibility
[5]
  reduction in viable cell count of menD mutant: no reduction in viable cell count
[1]
  difference in susceptibility / survival between atpA mutant and WT (in words): more susceptible
[1]; 2 h exposure, concentrations of Fig. 1a (5 µM)
  greater reduction in viable cells of atpA mutant compared with WT: 63 fold
[6]
  susceptibility of atpB mutant compared with WT: increased susceptibility

## c1ccc2c(c1)[I+]c1ccccc1-2 [DPI, diphenyleneiodonium]
[7]
  surviving atpA cells in DPI-treated neutrophils, percentage of initial counts: 74.3%
[8]
  surviving WT cells in DPI-treated neutrophils, percentage of initial counts: 91.4%

## CC[C@H](C)CCCCC(=O)N[C@@H](CCN)C(=O)N[C@H](C(=O)N[C@@H](CCN)C(=O)N[C@H]1CCNC(=O)[C@H]([C@@H](C)O)NC(=O)[C@H](CCN)NC(=O)[C@H](CCN)NC(=O)[C@H](CC(C)C)NC(=O)[C@@H](Cc2ccccc2)NC(=O)[C@H](CCN)NC1=O)[C@@H](C)O [polymyxin B] (X1-[Dab]T[Dab][Dab][Dab][dF]L[Dab][Dab]T; lactam 4-C (inferred); N-terminus assumed)
[9]; TSA + menadione (1 µg/ml)
  MIC: 192 µg/mL
[9]; TSA
  MIC: > 1024 µg/mL
[10]; TSA + 0 µg/ml resveratrol
  Polymyxin B MIC: 128 µg/mL
[10]; TSA + 16 µg/ml resveratrol
  Polymyxin B MIC: 64 to 96 µg/mL
[10]; TSA + 32 µg/ml resveratrol
  Polymyxin B MIC: 48 µg/mL
[10]; TSA + 64 µg/ml resveratrol
  Polymyxin B MIC: 24 µg/mL
[10]; TSA
  MIC: 128 µg/mL (≈ 106 µM)
[11]
  MIC: 96 µg/mL (≈ 79.8 µM)
[12]
  MIC: 16 µg/mL (≈ 13.3 µM)

## LL-37 (LLGDFFRKSKEKIGKEFKRIVQRIKDFLRNLVPRTES; Antibacterial peptide LL-37; UniProt P49913 134-170, looked up) [human antimicrobial peptide of the cathelicidin family (Isca Biochemicals)]
[1]
  difference in susceptibility / survival between atpA mutant and WT (in words): minor increase in bactericidal activity

## hBD1: human β-defensin 1 (Innovagen) (DHYNCVSSGGQCLYSACPIFTKIQGTCYRGKAKCCK; ends and bridges not checked; cysteine pairing not given here; UniProt P60022 33-68, looked up)
[1]
  difference in susceptibility / survival between atpA mutant and WT (in words): no differences
